Results: ChEMBL document CHEMBL5506064, “Discovery of ITI-333, a Novel Orally Bioavailable Molecule Targeting Multiple Receptors for the Treatment of Pain and Other Disorders” (J Med Chem, 2024)
Active and inactive are the calls of the source. No cut-off for these calls is given here.

How the values were obtained:
[1] = biological target: Sodium-dependent serotonin transporter (Homo sapiens) (UniProt P31645); assay: Displacement of [3H]-imipramine from human 5-HT transporter expressed in CHO cell membrane assessed as inhibition of radioligand binding at 100 nM incubated for 60 mins by competition binding based scintillation counter analysis relative to control; type: cell membranes
[2] = biological target: D(1A) dopamine receptor (Homo sapiens) (UniProt P21728); assay: Displacement of [3H]SCH-23390 from human dopamine D1 receptor expressed in CHO cell membrane assessed as inhibition of radioligand binding at 100 nM incubated for 60 mins by competition binding based scintillation counter analysis relative to control; type: cell membranes
[3] = biological target: D(2) dopamine receptor (Homo sapiens) (UniProt P14416); assay: Displacement of [3H]7-OH-DPAT from human dopamine D2 receptor expressed in HEK293 cell membrane assessed as inhibition of radioligand binding at 100 nM incubated for 60 mins by competition binding based scintillation counter analysis relative to control; type: cell membranes
[4] = biological target: 5-hydroxytryptamine receptor 2A (Homo sapiens) (UniProt P28223); assay: Displacement of [125I]DOI from human 5-HT2A receptor expressed in HEK293 cell membrane assessed as inhibition of radioligand binding at 100 nM incubated for 60 mins by competition binding based scintillation counter analysis relative to control; type: cell membranes
Mus musculus [5] = assay: Analgesic activity against formalin-induced inflammatory pain C57Bl/6 mouse model assessed as reduction in licking response at 5 mg/kg,SC pretreated for 30 min followed by formalin challenge and measured after 30 mins; type: functional, organism-based; conditions: time 60.0 min
Mus musculus [6] = assay: Analgesic activity in thermal stimulated CD-1 mouse assessed as increase in latency to pain response at 5 mg/kg,SC administration measured after 30 mins by tail flick assay; type: functional, organism-based
Mus musculus [7] = assay: Analgesic activity in naloxone induced CD-1 mouse assessed as increase in latency to pain response at 5 mg/kg,po administration measured after 30 mins by tail flick assay; type: functional, organism-based
[8] = biological target: Sodium-dependent serotonin transporter (Homo sapiens) (UniProt P31645); assay: Displacement of [3H]-imipramine from human 5-HT transporter expressed in CHO cell membrane assessed as inhibition of radioligand binding at 200 nM incubated for 60 mins by competition binding based scintillation counter analysis relative to control; type: cell membranes
[9] = biological target: T1, Alpha-1A adrenergic receptor (Homo sapiens) (UniProt P35348); assay: Antagonist activity at human alpha 1A adrenergic receptor expressed in CHO-K1 cells assessed as inhibition of phenylephrine induced […] calcium response at <= 10 uM by whole cell-based assay; type: functional; conditions: filed as antagonist
T1 sequence (whole entry): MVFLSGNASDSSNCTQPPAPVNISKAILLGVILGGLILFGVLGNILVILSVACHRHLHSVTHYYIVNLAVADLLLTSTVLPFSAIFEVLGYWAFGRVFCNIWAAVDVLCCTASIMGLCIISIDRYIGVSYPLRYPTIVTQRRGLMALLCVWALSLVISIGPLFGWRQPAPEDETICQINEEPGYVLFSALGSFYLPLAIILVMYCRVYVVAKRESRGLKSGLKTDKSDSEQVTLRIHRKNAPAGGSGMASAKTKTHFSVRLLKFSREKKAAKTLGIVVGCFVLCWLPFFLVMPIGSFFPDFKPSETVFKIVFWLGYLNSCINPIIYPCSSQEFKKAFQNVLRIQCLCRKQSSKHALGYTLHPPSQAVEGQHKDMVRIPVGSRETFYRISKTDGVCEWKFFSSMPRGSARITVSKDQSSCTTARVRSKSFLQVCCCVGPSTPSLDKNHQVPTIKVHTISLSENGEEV

Sodium-dependent serotonin transporter (Homo sapiens), sequence (P31645 whole entry, looked up): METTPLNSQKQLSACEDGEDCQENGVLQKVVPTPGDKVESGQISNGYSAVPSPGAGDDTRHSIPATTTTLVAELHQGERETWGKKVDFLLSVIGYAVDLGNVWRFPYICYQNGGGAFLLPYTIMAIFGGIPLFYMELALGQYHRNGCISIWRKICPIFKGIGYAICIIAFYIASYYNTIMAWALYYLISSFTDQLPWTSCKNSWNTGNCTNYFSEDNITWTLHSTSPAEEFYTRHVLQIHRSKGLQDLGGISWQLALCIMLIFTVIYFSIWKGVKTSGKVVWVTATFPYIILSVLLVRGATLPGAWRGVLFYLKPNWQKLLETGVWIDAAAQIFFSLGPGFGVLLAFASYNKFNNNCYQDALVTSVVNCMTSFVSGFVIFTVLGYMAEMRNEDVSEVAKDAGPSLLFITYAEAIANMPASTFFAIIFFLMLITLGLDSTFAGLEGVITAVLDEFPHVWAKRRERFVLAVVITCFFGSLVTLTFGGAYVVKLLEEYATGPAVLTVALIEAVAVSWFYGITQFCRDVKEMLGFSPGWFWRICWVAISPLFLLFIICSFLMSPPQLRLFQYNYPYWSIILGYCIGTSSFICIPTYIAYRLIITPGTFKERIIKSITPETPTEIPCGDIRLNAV
D(1A) dopamine receptor (Homo sapiens), sequence (P21728 whole entry): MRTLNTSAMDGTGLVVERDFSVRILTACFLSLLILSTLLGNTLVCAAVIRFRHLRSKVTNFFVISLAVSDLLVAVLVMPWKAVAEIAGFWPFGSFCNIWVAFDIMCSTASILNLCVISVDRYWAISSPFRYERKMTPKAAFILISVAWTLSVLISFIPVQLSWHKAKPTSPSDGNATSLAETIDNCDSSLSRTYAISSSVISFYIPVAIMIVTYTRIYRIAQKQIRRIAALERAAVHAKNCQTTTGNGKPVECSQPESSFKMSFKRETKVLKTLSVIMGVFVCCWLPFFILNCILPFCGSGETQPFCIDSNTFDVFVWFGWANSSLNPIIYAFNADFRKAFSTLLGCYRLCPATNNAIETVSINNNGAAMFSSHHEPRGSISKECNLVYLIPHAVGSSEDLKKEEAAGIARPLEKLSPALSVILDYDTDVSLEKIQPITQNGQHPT
D(2) dopamine receptor (Homo sapiens), sequence (P14416 whole entry): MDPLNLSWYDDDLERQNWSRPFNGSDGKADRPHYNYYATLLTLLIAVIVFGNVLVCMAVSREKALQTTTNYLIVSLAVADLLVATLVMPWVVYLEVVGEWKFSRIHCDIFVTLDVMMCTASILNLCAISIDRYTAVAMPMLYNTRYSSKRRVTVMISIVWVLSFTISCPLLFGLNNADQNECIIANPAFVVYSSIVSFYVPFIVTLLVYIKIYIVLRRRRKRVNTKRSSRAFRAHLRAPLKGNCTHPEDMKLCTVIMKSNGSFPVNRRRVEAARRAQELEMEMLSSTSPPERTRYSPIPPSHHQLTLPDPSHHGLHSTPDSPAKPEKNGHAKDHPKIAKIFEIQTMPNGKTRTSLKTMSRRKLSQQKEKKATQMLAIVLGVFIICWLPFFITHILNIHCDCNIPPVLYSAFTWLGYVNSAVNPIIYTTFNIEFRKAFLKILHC
5-hydroxytryptamine receptor 2A (Homo sapiens), sequence (P28223 whole entry): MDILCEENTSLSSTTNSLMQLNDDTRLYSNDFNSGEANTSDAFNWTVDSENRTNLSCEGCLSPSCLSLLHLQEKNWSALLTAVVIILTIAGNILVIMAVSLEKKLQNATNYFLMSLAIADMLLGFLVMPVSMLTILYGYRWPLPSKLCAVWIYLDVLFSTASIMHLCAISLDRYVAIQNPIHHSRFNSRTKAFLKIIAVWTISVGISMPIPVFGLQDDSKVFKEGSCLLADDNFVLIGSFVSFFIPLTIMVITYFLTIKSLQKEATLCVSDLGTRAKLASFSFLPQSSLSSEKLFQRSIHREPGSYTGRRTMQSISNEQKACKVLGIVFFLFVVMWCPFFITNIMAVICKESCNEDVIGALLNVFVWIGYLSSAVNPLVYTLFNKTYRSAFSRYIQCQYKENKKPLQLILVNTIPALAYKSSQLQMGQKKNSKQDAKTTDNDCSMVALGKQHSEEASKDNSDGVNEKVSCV

O=C1CN2c3c(cccc3[C@@H]3CN(CCCO)CC[C@@H]32)N1
inhibition [1]: inactive
inhibition [2]: inactive
inhibition [3]: inactive

O=C1CN2c3c(cccc3[C@@H]3CN(CCCOc4ccc5c(c4)OCO5)CC[C@@H]32)N1
inhibition [4]: inactive
inhibition [2]: inactive

CN1CC[C@]23c4c5ccc(O)c4O[C@H]2[C@@H](O)C=C[C@H]3[C@H]1C5
Activity (Mus musculus [5]): Active
Activity (Mus musculus [6]): Active
Activity (Mus musculus [7]): inactive

COc1ccc(OCCCN2CC[C@H]3[C@@H](C2)c2cccc4c2N3CC(=O)N4)cc1
inhibition [4]: inactive
inhibition [2]: inactive

O=C1CN2c3c(cccc3[C@@H]3CN(CCCOc4ccc(Br)cc4)CC[C@@H]32)N1
inhibition [2]: inactive

O=C1CN2c3c(cccc3[C@@H]3CN(CCCS(=O)(=O)c4ccc(F)cc4)CC[C@@H]32)N1
inhibition [2]: inactive
inhibition [3]: inactive
inhibition [8]: inactive

O=C1CN2c3c(cccc3[C@@H]3CN(CCOc4ccc(F)cc4)CC[C@@H]32)N1
inhibition [1]: inactive

NC(=O)c1cc(F)ccc1OCCCN1CC[C@H]2[C@@H](C1)c1cccc3c1N2CC(=O)N3
inhibition [2]: inactive
inhibition [3]: inactive

CC1C(=O)Nc2cccc3c2N1[C@H]1CCN(CCCOc2ccc(F)cc2)C[C@@H]31 (stereo partly specified)
inhibition [1]: inactive

Cc1cc(F)cc(C)c1OCCCN1CC[C@H]2[C@@H](C1)c1cccc3c1N2CC(=O)N3
inhibition [2]: inactive
inhibition [3]: inactive

O=C1CN2c3c(cccc3[C@@H]3CN(CCCOc4ccc(F)cc4)CC[C@@H]32)N1
Activity [9]: Active

O=C1CN2c3c(cccc3[C@@H]3CN(CCCOc4ccc(O)cc4)CC[C@@H]32)N1
inhibition [2]: inactive

O=C1CN2c3c(cccc3[C@@H]3CN(CCCCOc4ccc(F)cc4)CC[C@@H]32)N1
inhibition [1]: inactive

CCCCN1CC[C@H]2[C@@H](C1)c1cccc3c1N2CC(=O)N3
inhibition [1]: inactive
inhibition [4]: inactive
inhibition [2]: inactive
